From patent US20080292699A1, “SOLID PHARMACEUTICAL DOSAGE UNIT FOR A[…] OF RHINORRHEA” (SOVEREIGN PHARMACEUTICALS, LTD., priority 2007, published 2008) come the findings set out here.

Where a name gives a salt, the structure may show the parent alone.

This series is described as follows: Dissolution testing of the bi-layered tablet (USP I, baskets, 0.01 N HCl). It is filed as physicochemical. Conditions: 500 mL 0.01 N HCl, 37° C., 100 rpm, average of six tablets.
The mark [1] stands for this setting: Time 2 hr, sustained release layer.
The mark [2] stands for this setting: Time 4 hr, sustained release layer.
Setting [3] is: Time 8 hr, sustained release layer.

Method: Place 500 mL (+/−5 mL) of 0.01 N HCl in each vessel of the dissolution apparatus (USP I, baskets). Allow media to equilibrate to 37° C.+/−0.5° C. […] Select 6 tablets at random and record weight of each tablet. […] Put one tablet into each basket. Turn dissolution apparatus on to a rate of 100 rpm. […] Withdraw samples through a 45 μm porous polyethylene filter disc (Whatman GE/X or Millipore Millex-GN) at 45 minutes, 2, 4 and 8 hours. […] Inject filtered samples into a gas chromatograph, injecting one standard (as used for calibration) after every six samples. Gas Chromatography: Instrument: Waters Alliance 2695 Separation Module Column: Waters μBondapak C18 Column, 10 μm, 3.9×300 mm; PN WAT027324 Column Temperature: 52° C. Flow Rate: 1.8 mL per minute Injection Volume: 200 μL Detector: UV at 257 nm Mobile Phase: A: Methanol • B: Pic-B8 (for every liter of Pic-B8 aqueous solution, dissolve 2.164 g of 1-octanesulfonic acid sodium salt in water and add 20 mL of glacial acetic acid) [table]

Consider `CN(C)CCC(c1ccc(Cl)cc1)c1ccccn1` (stereo not shown) [CPM, Chlorpheniramine Maleate], for which the “Average Amount Released [%]” value reads like this: under setting [1], 33.3%; under setting [2], 57.1%; under setting [3], 87.0%.
On the same counts, the results for `CNC[C@H](O)c1cccc(O)c1` [PEH, Phenylephrine HCl] are 43.6%, 65.8% and 89.0%.
As for Methscopolamine Nitrate [MSPN], for the setting “Time 45 min, immediate release layer”, the “Average Amount Released [%]” value turned out to be 100.2%.
